Source: patent publication US11426422B2, “SHP2 inhibitors and methods of use thereof” (Research Development Foundation, priority 2018, dated 2022)

Key:
HFD-fed mice = assay: glucose tolerance test in HFD-fed mice; format: in vivo; settings: 60 mg/kg daily oral gavage for 6 days; male mice fed HFD 5 weeks; 14 h fasted
Protocol: (§1) (FIG. 3A) Glucose tolerance test in 14 h fasted male mice fed a HFD for 5 weeks. […] At 1 day after drug treatment, glucose tolerance test was performed. Mean±SEM. (FIG. 3B) Insulin tolerance test of mice treated as described in FIG. 3A. Mean±SEM. […] The liver sections were stained with anti-IR (red) and DAPI (blue). Scale bars, 5 μm. (FIG. 3D) Quantification of the ratios of PM and IC IR signals of the livers in C (mean±SD; *p<0.0001). […] Cell lysates were blotted with the indicated antibodies.
(§2) The IR staining at the PM in liver sections from mice fed with HFD was weak, and insulin stimulation further reduced it and caused IR endocytosis (FIGS. 3C and D).
All animals were maintained in a specific antigen-free barrier facility with 12 h light/dark cycles (6 AM on and 6 PM off). Mice were fed a standard rodent chow (2016 Teklad Global 16% protein rodent diet, Harlan Laboratories). […] For glucose tolerance test, mice were fasted for 14 h, and their blood glucose levels (T=0) were measured with tail bleeding using a glucometer (AlphaTRAK®). […] Blood glucose levels were measured at 15, 30, 60, and 120 min after glucose injection. For insulin tolerance test, mice fasted for 4 h were injected intraperitoneally with recombinant human insulin (Eli Lilly) at 1 U/kg body weight, and their blood glucose levels were measured at 0, 15, 30 and 60 min after injection.

IR in liver sections = assay: IR staining at the PM in liver sections of HFD-fed mice; format: in vivo; settings: 60 mg/kg oral for 6 days
Protocol: as §1, §2
The fixation, histological analysis, and immunohistochemistry of mouse tissues were performed as described previously (Choi et al., 2016). For human patient sample analysis, the deparaffinized sections were subjected to antigen retrieval with 10 mM sodium citrate (pH 6.0), incubated with 0.3% H2O2, blocked with 0.3% BSA, and then incubated first with anti-IR (CT3, Millipore®, 1:100) and anti-ZO1 (Thermo Scientific®, 1:200) antibodies and then with secondary antibodies (AlexaFluor® 568 goat anti-mouse and AlexaFluor® 488 goat anti-rabbit; Molecular Probes®). […] The total cell numbers and numbers of IR PM-positive cells were counted at least twice for individual images. Over 100 cells were analyzed for each patient samples. […]

primary hepatocytes = assay: insulin signaling in primary hepatocytes (quantitative Western blot); format: cell-based, mice; settings: 10 μM for 2 h, then 100 nM insulin
Protocol: as §1
To examine the effect of SHP2 inhibition on insulin signaling in freshly isolated primary hepatocytes, the activating phosphorylation of IR (pY1189/1190), AKT (pT308), and ERK1/2 (pT202/Y204, pERK1/2) in the hepatocytes was monitored (FIG. 3E and FIG. 8B).
Primary hepatocytes were isolated from 2-month-old female mice with a standard two-step collagenase perfusion procedure. Cells were plated on collagen-coated dishes and incubated in attachment medium (Williams' E Medium supplemented with 5% (v/v) FBS, 10 nM insulin, 10 nM dexamethasone, and 1% (v/v) penicillin/streptomycin). After 2-4 h, the medium was changed to low-glucose DMEM supplemented with 5% (v/v) FBS, 10 nM dexamethasone, 10 nM insulin, 100 nM triiodothyronine, and 1% (v/v) penicillin/streptomycin.
Cells were incubated with the cell lysis buffer [50 mM HEPES (pH 7.4), 150 mM NaCl, 10% (v/v) Glycerol, 1% (v/v) Triton X-100, 1 mM EDTA, 100 mM sodium fluoride, 2 mM sodium orthovanadate, 20 mM sodium pyrophosphate, 0.5 mM dithiothreitol (DTT), 2 mM phenylmethylsulfonyl fluoride (PMSF)] supplemented with protease inhibitors (Roche®) and PhosSTOP™ (Roche®) on ice for 1 h. The cell lysates were cleared by centrifugation and incubated with antibody-conjugated beads. The beads were washed, and the bound proteins were eluted with the SDS sample buffer and analyzed by SDS-PAGE and Western blotting. For quantitative Western blots, anti-rabbit immunoglobulin G (IgG) (H+L) (Dylight 800 or 680 conjugates) and anti-mouse IgG (H+L) (Dylight 800 or 680 conjugates) (Cell Signaling) were used as secondary antibodies. […]

CC1(N)CCN(c2cnc(-c3cccc(Cl)c3Cl)c(N)n2)CC1 [SHP099] was tested. Which glucose tolerance (HFD-fed mice) did it give?
Its glucose tolerance is “markedly increased glucose tolerance”.

And the “insulin-activated IR endocytosis in liver” value (IR in liver sections; 5 U insulin via inferior vena cava)?
Its value is “blocked insulin-activated IR endocytosis”.

And the “IR signal at the PM in liver” value (IR in liver sections; in the absence of insulin)?
The value was “elevated the IR signal at the PM”.

And the “activation of the MAPK pathway by insulin (pERK1/2)” value (primary hepatocytes)?
Its value is “inhibited the activation of the MAPK pathway by insulin”.

What about the “insulin-triggered activating phosphorylation of AKT (pT308)” value (primary hepatocytes) of the same compound?
Its value is “significantly increased and prolonged”.

What about the “insulin-triggered activating phosphorylation of IR (pY1189/1190)” value (primary hepatocytes) of the same compound?
Its value is “significantly increased and prolonged”.
